From patent US6407094B1, “Glutamate receptor antagonists” (Hoffmann-la Roche Inc., priority 1999, dated 2002)

Row | Structure (SMILES) | melting point
1 | O=C1CC(c2cccc(-n3ccnc3)c2)=Nc2cc(OCCO)c(C#Cc3ccc(F)cc3)cc2N1 [Example 44, 8-(4-Fluoro-phenylethynyl)-7-(2-hydroxy-ethoxy)-4-(3-imidazol-1-yl-phenyl)-1,3-dihydro-benzo[b][1,4]diazepin-2-one] | 220 to 222 °C
2 | O=C1CC(c2cccc(-n3ccnc3)c2)=Nc2cc(CO)c(-c3ccc(F)cc3)cc2N1 [Example 46, 8-(4-Fluoro-phenyl)-7-hydroxymethyl-4-(3-imidazol-1-yl-phenyl)-1,3-dihydro-benzo[b][1,4]diazepin-2-one] | 180 to 195 °C
3 | N#CCOc1cc2c(cc1-c1ccc(F)cc1)NC(=O)CC(c1cccc(-n3ccnc3)c1)=N2 [Example 47, [8-(4-Fluoro-phenyl)-4-(3-imidazol-1-yl-phenyl)-2-oxo-2,3-dihydro-1H-benzo[b][1,4]diazepin-7-yloxy]-acetonitrile] | 164 °C
4 | CN(C)Cc1cc2c(cc1-c1ccc(F)cc1)NC(=O)CC(c1cccc(-n3ccnc3)c1)=N2 [Example 48, 7-Dimethylaminomethyl-8-(4-fluoro-phenyl)-4-(3-imidazol-1-yl-phenyl)-1,3-dihydro-benzo[b][1,4]diazepin-2-one] | 115 to 140 °C (dec.)
5 | CC1(C)OC2CN(c3cc4c(cc3-c3ccc(F)cc3)NC(=O)CC(c3cccc(-n5ccnc5)c3)=N4)CC2O1 (stereo not drawn) [Example 49, 7-(2,2-Dimethyl-tetrahydro-[1,3]dioxolo [4,5-c]pyrrol-5-yl)-8-(4-fluoro-phenyl)-4-(3-imidazol-1-yl-phenyl)-1,3-dihydro-benzo[b][1,4]diazepin-2-one] | 240 °C (dec.)
6 | O=C1CC(c2cccc(-n3ccnc3)c2)=Nc2cc(N3C[C@@H](O)[C@@H](O)C3)c(-c3ccc(F)cc3)cc2N1 [Example 50, 7-(cis-3,4-Dihydroxy-pyrrolidin-1-yl)-8-(4-fluoro-phenyl)-4-(3-imidazol-1-yl-phenyl)-1,3-dihydro-benzo[b][1,4]diazepin-2-one] | 244 °C
7 | COc1cc2c(cc1-c1ccc(F)cc1)NC(=O)CC(c1cccc(-n3ccnc3)c1)=N2 [Example 51, 8-(4-Fluoro-phenyl)-4-(3-imidazol-1-yl-phenyl)-7-methoxy-1,3-dihydro-benzo[b][1,4]diazepin-2-one] | 221 °C (dec.)
8 | O=C1CCN(c2cc3c(cc2-c2ccc(F)cc2)NC(=O)CC(c2cccc(-n4ccnc4)c2)=N3)CC1 [Example 52, 8-(4-Fluoro-phenyl)-4-(3-imidazol-1-yl-phenyl)-7-(4-oxo-piperidin-1-yl)-1,3-dihydro-benzo[b][1,4]diazepin-2-one] | 204 °C
9 | Cc1cc2c(cc1-c1ccc(F)cc1)NC(=O)CC(c1cccc(-n3ccnc3)c1)=N2 [Example 53, 8-(4-Fluoro-phenyl)-4-(3-imidazol-1-yl-phenyl)-7-methyl-1,3-dihydro-benzo[b][1,4]diazepin-2-one] | 196 °C
10 | O=C1CC(c2cccc(-n3ccnc3)c2)=Nc2cc(Cl)c(-c3ccc(F)cc3)cc2N1 [Example 56, 7-Chloro-8-(4-fluoro-phenyl)-4-(3-imidazol-1-yl-phenyl)-1,3-dihydro-benzo[b][1,4]diazepin-2-one] | 209 to 211 °C
11 | COCCOc1cc2c(cc1-c1ccc(F)cc1)NC(=O)CC(c1cccc(-n3ccnc3)c1)=N2 [Example 57, 8-(4-Fluoro-phenyl)-4-(3-imidazol-1-yl-phenyl)-7-(2-methoxy-ethoxy)-1,3-dihydro-benzo[b][1,4]diazepin-2-one] | 196 to 197 °C
12 | O=C1CC(c2cccc(-n3ccnc3)c2)=Nc2cc(OCCO)c(-c3ccc(F)cc3)cc2N1 [Example 58, 8-(4-Fluoro-phenyl)-7-(2-hydroxy-ethoxy)-4-(3-imidazol-1-yl-phenyl)-1,3-dihydro-benzo[b][1,4]diazepin-2-one] | 225 °C
13 | O=C1CC(c2cccc(-n3ccnc3)c2)=Nc2cc(N3CCOC3=O)c(-c3ccc(F)cc3)cc2N1 [Example 59, 8-(4-Fluoro-phenyl)-4-(3-imidazol-1-yl-phenyl)-7-(2-oxo-oxazolidin-3-yl)-1,3-dihydro-benzo[b][1,4]diazepin-2-one] | 230 °C
14 | COc1cc2c(cc1-c1ccc(F)cc1C)NC(=O)CC(c1cccc(-n3ccnc3)c1)=N2 [Example 60, 8-(4-Fluoro-2-methyl-phenyl)-4-(3-imidazol-1-yl-phenyl)-7-methoxy-1,3-dihydro-benzo[b][1,4]diazepin-2-one] | 225 °C
15 | O=C1CC(c2cccc(-n3ccnc3)c2)=Nc2cc(N3CC[C@@H](O)C3)c(-c3ccc(F)cc3)cc2N1 [Example 63, 8-(4-Fluoro-phenyl)-7-((R)-3-hydroxy-pyrrolidin-1-yl)-4-(3-imidazol-1-yl-phenyl)-1,3-dihydro-benzo[b][1,4]diazepin-2-one] | 155 to 158 °C
16 | COc1cc2c(cc1-c1ccccc1F)NC(=O)CC(c1cccc(-n3ccnc3)c1)=N2 [Example 64, 8-(2-Fluoro-phenyl)-4-(3-imidazol-1-yl-phenyl)-7-methoxy-1,3-dihydro-benzo[b][1,4]diazepin-2-one] | 216 °C (dec.)
17 | N#Cc1cccc(C2=Nc3cc(O)c(-c4ccc(F)cc4)cc3NC(=O)C2)c1 [Example 65, 3-[7-(4-Fluoro-phenyl)-8-hydroxy-4-oxo-4,5-dihydro-3H-benzo[b][1,4]diazepin-2-yl]-benzonitrile] | > 250 °C

Row | Structure (SMILES) | melting point
18 | N#Cc1cccc(C2=Nc3cc(O)c(-c4ccccc4F)cc3NC(=O)C2)c1 [Example 66, 3-[7-(2-Fluoro-phenyl)-8-hydroxy-4-oxo-4,5-dihydro-3H-benzo[b][1,4]diazepin-2-yl]-benzonitrile] | > 250 °C
19 | COc1cc2c(cc1-c1ccccc1F)NC(=O)CC(c1cccc(C#N)c1)=N2 [Example 67, 3-[7-(2-Fluoro-phenyl)-8-methoxy-4-oxo-4,5-dihydro-3H-benzo[b][1,4]diazepin-2-yl]-benzonitrile] | 245 to 247 °C
20 | COc1cc2c(cc1-c1ccccc1F)NC(=O)CC(c1cccc(-n3cnnc3)c1)=N2 [Example 70, 8-(2-Fluoro-phenyl)-7-methoxy-4-(3-[1,2,4]triazol-4-yl-phenyl)-1,3-dihydro-benzo[b][1,4]diazepin-2-one] | 188 °C (dec.)
21 | COc1cc2c(cc1-c1ccccc1F)NC(=O)CC(c1cc(C#N)ccc1F)=N2 [Example 73, 4-Fluoro-3-[7-(2-fluoro-phenyl)-8-methoxy-4-oxo-4,5-dihydro-3H-benzo[b][1,4]diazepin-2-yl]-benzonitrile] | > 250 °C
22 | N#Cc1cc(C2=Nc3cc(O)c(-c4ccc(F)cc4)cc3NC(=O)C2)ccn1 [Example 74, 4-[7-(4-Fluoro-phenyl)-8-hydroxy-4-oxo-4,5-dihydro-3H-benzo[b][1,4]diazepin-2-yl]-pyridine-2-carbonitrile] | 164 °C
23 | N#Cc1cccc(C2=Nc3cc(N4CCC5(CC4)OCCO5)c(-c4ccccc4F)cc3NC(=O)C2)c1 [Example 76, 3-[8-(1,4-Dioxa-8-aza-spiro[4.5]dec-8-yl)-7-(2-fluoro-phenyl)-4-oxo-4,5-dihydro-3H-benzo[b][1,4]diazepin-2-yl]-benzonitrile] | 253 °C
24 | O=C1CC(c2cccc(-n3ccnc3)c2)=Nc2cc(N3CCC4(CC3)OCCO4)c(-c3ccccc3F)cc2N1 [Example 77, 7-(1,4-Dioxa-8-aza-spiro[4.5]dec-8-yl)-8-(2-fluoro-phenyl)-4-(3-imidazol-1-yl-phenyl)-1,3-dihydro-benzo[b][1,4]diazepin-2-one] | 225 °C
25 | O=C1CCN(c2cc3c(cc2-c2ccccc2F)NC(=O)CC(c2cccc(-n4ccnc4)c2)=N3)CC1 [Example 78, 8-(2-Fluoro-phenyl)-4-(3-imidazol-1-yl-phenyl)-7-(4-oxo-piperidin-1-yl)-1,3-dihydro-benzo[b][1,4]diazepin-2-one] | 230 °C
26 | N#Cc1cc(C2=Nc3cc(O)c(-c4ccccc4F)cc3NC(=O)C2)ccn1 [Example 80, 4-[7-(2-Fluoro-phenyl)-8-hydroxy-4-oxo-4,5-dihydro-3H-benzo[b][1,4]diazepin-2-yl]-pyridine-2-carbonitrile] | > 250 °C
27 | COc1cc2c(cc1-c1cc(F)ccc1F)NC(=O)CC(c1cccc(C#N)c1)=N2 [Example 82, 3-[7-(2,5-Difluoro-phenyl)-8-methoxy-4-oxo-4,5-dihydro-3H-benzo[b][1,4]diazepin-2-yl]-benzonitrile] | 251 °C
28 | N#Cc1ccsc1C1=CC(=O)Nc2cc(-c3ccccc3F)c(O)cc2N1 [Example 84, 2-[7-(2-Fluoro-phenyl)-8-hydroxy-4-oxo-4,5-dihydro-1H-benzo[b][1,4]diazepin-2yl]-thiophene-3-carbonitrile] | 242 °C
29 | O=C1CC(c2cccc(-n3ccnn3)c2)=Nc2cc(O)c(-c3ccc(F)cc3)cc2N1 [Example 86, 8-(4-Fluoro-phenyl)-7-hydroxy-4-(3-[1,2,3]triazol-1-yl-phenyl)-1,3-dihydro-benzo[b][1,4]diazepin-2-one] | > 250 °C
30 | COCCOc1cc2c(cc1-c1ccccc1F)NC(=O)CC(c1cccc(C#N)c1)=N2 [Example 87, 3-[7-(2-Fluoro-phenyl)-8-(2-methoxy-ethoxy)-4-oxo-4,5-dihydro-3H-benzo[b][1,4]diazepin-2-yl]-benzonitrile] | 211 to 213 °C
31 | N#Cc1cccc(C2=Nc3cc(CO)c(-c4ccccc4F)cc3NC(=O)C2)c1 [Example 88, 3-[7-(2-Fluoro-phenyl)-8-hydroxymethyl-4-oxo-4,5-dihydro-3H-benzo[b][1,4]diazepin-2-yl]-benzonitrile] | 90 to 91 °C
32 | O=C1CC(c2cccc(-n3ccnn3)c2)=Nc2cc(O)c(C#Cc3ccc(F)cc3)cc2N1 [Example 92, 8-(4-Fluoro-phenylethynyl)-7-hydroxy-4-(3-[1,2,3]triazol-1-yl-phenyl)-1,3-dihydro-benzo[b][1,4]diazepin-2-one] | 243 °C
33 | COCCOc1cc2c(cc1C#Cc1ccccc1)NC(=O)CC(c1cccc(C(N)=O)c1)=N2 [Example 95, 3-[8-(2-Methoxy-ethoxy)-4-oxo-7-phenylethynyl-4,5-dihydro-3H-benzo[b][1,4]diazepin 2-yl]-benzamide] | 227 to 230 °C (dec.)
